The values below are quoted from earlier work in patent US7015235B2, “Acylated piperidine derivatives as melanocortin-4 receptor agonists” (priority 2001, dated 2006).

The subject of this series is men.

As to `Cc1ccc(N(CC2=NCCN2)c2cccc(O)c2)cc1` [phentolamine], where the note is “after an oral dose”, the duration of effect is 2 h and the onset of action was 5 to 30 min. The “share of men/patients with adequate response” value (oral) is reported as 35–40%.
